Measured values as given in patent publication US7101878B1 (Agouron Pharmaceuticals, Inc., priority 1998, dated 2006).

Legend:
[1] = target: AchE (Homo sapiens, UniProt P22303); assay: Selectivity: AchE
[2] = target: Choline Acetyltransferase (Homo sapiens, UniProt P28329); assay: biochemical
[3] = target: TRH (Homo sapiens, UniProt P34981); assay: biochemical
[4] = target: H3 Histamine (Homo sapiens, UniProt Q9Y5N1); assay: Selectivity: H3 Histamine
[5] = target: H2 Histamine (Homo sapiens, UniProt P25021); assay: Selectivity: H2 Histamine
[6] = target: NK1 (Homo sapiens, UniProt P25103); assay: biochemical
[7] = target: MAO-B (Homo sapiens, UniProt P27338); assay: Selectivity: MAO-B
[8] = target: Oxytocin (Homo sapiens, UniProt P30559); assay: biochemical
[9] = target: H1 Histamine (Homo sapiens, UniProt P35367); assay: Selectivity: H1 Histamine
[10] = target: Bradykinin 2 (Homo sapiens, UniProt P30411); assay: biochemical
[11] = target: RXRα Retinoid (Homo sapiens, UniProt P19793); assay: biochemical
[12] = test system: rat mast cells; assay: Selectivity: Basal Histamine Release (rat mast cells); conditions: Mast cell, read-out: Basal Histamine Release (rat mast cells) EC50
[13] = target: N-type Ca2+ Channel (Homo sapiens, UniProt Q00975); assay: Selectivity: N-type Ca2+ Channel
[14] = target: AT1 Angiotensin (Homo sapiens, UniProt P30556); assay: biochemical
[15] = target: LTD4 (Homo sapiens, UniProt Q9Y271); assay: biochemical
[16] = target: NK3 (Homo sapiens, UniProt P29371); assay: biochemical
[17] = target: NK2 (Homo sapiens, UniProt P21452); assay: biochemical
[18] = target: MAO-A (Homo sapiens, UniProt P21397); assay: Selectivity: MAO-A
[19] = Intact male rat, testosterone suppression; assay type: in vivo; conditions: male, Sprague-Dawley, rat, plasma, intramuscular; 100 mg/kg im*, 7 days; read-out: Range of Plasma Conc.
From the text: Testosterone is a hormone regulated by the hypothalamic-pituitary-gonadal axis. GnRH is secreted in pulses from the hypothalamus and stimulates the anterior pituitary gland to release gonadotropic hormones LH and FSH. Testosterone is produced when the testes are stimulated by LH. The quantity of testosterone secreted increases approximately in direct proportion to the amount of LH available (Guyton, 1986).
Male Sprague-Dawley (250-275 g) rats were single-housed and allowed to acclimate for 1 week prior to study. On study day animals were dosed with vehicle or test compound by various routes of administration, including ip, sc, or po. Blood samples were obtained via cardiac puncture under halothane anesthesia from individual animals at predetermined time points post treatment. Blood samples were drawn into heparin containing tubes. Blood was centrifuged immediately, plasma collected and stored in −20° freezer until assayed. Plasma samples were analyzed using DSL-4000 ACTIVE Testosterone coated-tube raduioimmunoassay kit from Diagnostic Systems Laboratories, Inc.
Male Sprague-Dawley (250-275 g) rats were single-housed and allowed to acclimate for 1 week prior to study. We developed a technique to allow for repeated sampling from the jugular vein by using microrenathane (MRE) catheters implanted 7 days prior to study. Details of the surgical procedure have been described previously {Harms and Ojeda, 1974}. On study day, animals were allowed to acclimate to the procedure room while residing in their home cage. Basal blood samples were drawn from all animals. Immediately following basal sampling, vehicle or test compounds were administered by various routes. The routes of administration employed were intravenous (iv), intramuscular (im), and oral (po). Blood samples were drawn into heparin containing tubes at multiple time points post treatment. Blood was centrifuged immediately, plasma collected and stored in −20° freezer until assayed. Plasma samples were analyzed using DSL-4000 ACTIVE Testosterone coated-tube raduioimmunoassay kit from Diagnostic Systems Laboratories, Inc.
Male Sprague-Dawley (250-275 g) rats were double-housed and allowed to acclimate for 1 week prior to study. Daily vehicle treatments were administered either, im, sc, or po between 8:00 and 9:00 am for seven days. On day 8 between 8:00 and 9:00 am, blood samples were drawn via cardiac puncture under halothane anesthesia. The procedure was complete in 45-60 seconds. Over the next 7 days one groups of animals continued to receive vehicle treatments while another group of animals received no treatment. Samples were collected as described above following the 7th day of this treatment regimen. Testosterone levels were not different between vehicle treated animals and untreated animals.
Daily im dosing of Compound 134 (100 mg/kg) or vehicle was performed between 8:00 and 9:00 am for seven days. Samples were collected as described above following the 7th day of treatment.
All blood samples were collected in heparin containing tubes. Blood was centrifuged immediately, plasma collected and stored in −20° freezer until assayed the next day. Plasma samples were analyzed using DSL-4000 ACTIVE Testosterone coated-tube raduioimmunoassay kit from Diagnostic Systems Laboratories, Inc.

Oxytocin, sequence (P30559 whole entry): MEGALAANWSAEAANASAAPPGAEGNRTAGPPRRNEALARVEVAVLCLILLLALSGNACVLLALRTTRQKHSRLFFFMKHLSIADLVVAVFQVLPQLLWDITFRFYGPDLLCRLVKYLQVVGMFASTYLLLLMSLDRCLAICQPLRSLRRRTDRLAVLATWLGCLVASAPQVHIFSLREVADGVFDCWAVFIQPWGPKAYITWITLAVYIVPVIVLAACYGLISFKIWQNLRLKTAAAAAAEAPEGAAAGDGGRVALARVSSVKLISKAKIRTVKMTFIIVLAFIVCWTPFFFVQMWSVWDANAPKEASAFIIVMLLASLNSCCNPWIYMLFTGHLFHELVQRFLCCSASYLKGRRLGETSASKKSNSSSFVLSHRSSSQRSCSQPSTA
NK3, sequence (P29371 whole entry): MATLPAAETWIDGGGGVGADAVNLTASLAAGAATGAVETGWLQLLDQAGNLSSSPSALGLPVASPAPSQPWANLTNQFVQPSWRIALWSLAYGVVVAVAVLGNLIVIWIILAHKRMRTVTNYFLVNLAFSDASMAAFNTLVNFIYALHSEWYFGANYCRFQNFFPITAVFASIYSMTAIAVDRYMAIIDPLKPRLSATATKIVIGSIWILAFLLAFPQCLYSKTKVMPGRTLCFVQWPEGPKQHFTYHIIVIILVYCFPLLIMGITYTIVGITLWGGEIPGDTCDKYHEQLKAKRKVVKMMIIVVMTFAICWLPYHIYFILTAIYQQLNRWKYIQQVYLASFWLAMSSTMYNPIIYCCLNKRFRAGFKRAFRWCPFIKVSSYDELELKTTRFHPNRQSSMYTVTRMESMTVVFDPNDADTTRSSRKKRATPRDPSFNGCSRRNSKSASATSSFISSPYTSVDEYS
AT1 Angiotensin, sequence (P30556 whole entry): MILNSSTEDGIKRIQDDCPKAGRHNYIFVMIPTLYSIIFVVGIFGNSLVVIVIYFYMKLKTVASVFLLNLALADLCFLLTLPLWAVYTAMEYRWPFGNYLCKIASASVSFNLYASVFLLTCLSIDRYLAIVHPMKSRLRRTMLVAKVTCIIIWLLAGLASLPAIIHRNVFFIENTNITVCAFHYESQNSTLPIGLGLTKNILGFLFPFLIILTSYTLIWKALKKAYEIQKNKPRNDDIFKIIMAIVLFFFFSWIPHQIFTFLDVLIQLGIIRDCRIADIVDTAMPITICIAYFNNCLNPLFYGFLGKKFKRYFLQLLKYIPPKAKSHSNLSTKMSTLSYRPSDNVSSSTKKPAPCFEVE
RXRα Retinoid, sequence (P19793 whole entry): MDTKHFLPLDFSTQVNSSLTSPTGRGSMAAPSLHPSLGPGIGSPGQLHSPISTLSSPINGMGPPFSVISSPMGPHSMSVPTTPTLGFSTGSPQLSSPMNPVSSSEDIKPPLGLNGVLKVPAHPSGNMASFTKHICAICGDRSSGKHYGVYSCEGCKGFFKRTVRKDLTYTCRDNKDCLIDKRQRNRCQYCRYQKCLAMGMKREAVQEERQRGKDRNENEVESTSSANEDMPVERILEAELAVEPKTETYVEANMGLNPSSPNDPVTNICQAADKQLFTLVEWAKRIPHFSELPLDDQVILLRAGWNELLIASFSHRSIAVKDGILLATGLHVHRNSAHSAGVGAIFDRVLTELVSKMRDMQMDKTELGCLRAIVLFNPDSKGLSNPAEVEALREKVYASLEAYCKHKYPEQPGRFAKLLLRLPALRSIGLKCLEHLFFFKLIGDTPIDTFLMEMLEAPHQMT
LTD4, sequence (Q9Y271 whole entry): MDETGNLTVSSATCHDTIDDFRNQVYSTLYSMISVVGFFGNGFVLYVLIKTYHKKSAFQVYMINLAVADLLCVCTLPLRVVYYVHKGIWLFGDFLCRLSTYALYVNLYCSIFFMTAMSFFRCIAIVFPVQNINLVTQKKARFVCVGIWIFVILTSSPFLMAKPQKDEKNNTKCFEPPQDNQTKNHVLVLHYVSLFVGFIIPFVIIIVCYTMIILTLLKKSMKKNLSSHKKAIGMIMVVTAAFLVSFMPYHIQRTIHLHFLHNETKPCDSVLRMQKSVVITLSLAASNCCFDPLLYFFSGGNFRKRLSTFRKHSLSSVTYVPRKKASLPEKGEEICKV
MAO-A, sequence (P21397 whole entry, species assumed): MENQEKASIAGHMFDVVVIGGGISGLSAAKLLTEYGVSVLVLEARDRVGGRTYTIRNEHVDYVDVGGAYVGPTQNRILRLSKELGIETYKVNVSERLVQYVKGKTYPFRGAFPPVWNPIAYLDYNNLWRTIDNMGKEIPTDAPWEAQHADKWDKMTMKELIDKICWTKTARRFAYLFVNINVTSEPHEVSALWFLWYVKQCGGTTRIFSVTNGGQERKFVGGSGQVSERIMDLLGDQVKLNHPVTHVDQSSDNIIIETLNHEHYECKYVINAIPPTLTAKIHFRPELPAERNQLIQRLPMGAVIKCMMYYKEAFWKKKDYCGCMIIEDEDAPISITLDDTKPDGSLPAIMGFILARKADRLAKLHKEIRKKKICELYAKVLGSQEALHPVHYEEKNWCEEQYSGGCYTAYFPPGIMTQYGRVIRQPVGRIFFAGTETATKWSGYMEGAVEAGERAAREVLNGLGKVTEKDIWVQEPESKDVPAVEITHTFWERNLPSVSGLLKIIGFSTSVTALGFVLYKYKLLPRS
Bradykinin 2, sequence (P30411 whole entry): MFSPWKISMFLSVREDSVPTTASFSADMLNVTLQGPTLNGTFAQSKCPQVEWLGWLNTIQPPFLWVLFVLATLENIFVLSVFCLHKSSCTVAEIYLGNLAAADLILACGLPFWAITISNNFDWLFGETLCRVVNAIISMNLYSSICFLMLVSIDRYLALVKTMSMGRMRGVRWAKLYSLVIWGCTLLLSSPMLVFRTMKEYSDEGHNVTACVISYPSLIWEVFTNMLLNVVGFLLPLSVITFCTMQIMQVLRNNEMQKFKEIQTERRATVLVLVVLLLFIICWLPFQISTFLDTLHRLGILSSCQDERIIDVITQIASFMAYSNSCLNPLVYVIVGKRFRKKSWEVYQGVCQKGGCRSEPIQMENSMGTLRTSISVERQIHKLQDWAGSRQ
MAO-B, sequence (P27338 whole entry, species assumed): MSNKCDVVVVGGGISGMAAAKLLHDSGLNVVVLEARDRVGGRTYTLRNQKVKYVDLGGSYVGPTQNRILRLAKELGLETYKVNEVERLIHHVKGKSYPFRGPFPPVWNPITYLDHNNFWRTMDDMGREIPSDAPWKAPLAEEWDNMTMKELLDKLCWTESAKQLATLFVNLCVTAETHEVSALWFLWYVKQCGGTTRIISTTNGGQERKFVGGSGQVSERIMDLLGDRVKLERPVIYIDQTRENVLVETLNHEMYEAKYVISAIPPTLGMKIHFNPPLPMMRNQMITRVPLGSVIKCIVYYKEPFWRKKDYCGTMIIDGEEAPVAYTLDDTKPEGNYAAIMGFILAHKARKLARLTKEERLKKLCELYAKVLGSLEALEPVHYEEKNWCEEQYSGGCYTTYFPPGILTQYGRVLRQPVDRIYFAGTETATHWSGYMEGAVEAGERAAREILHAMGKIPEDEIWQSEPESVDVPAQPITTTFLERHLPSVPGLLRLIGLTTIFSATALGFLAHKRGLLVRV
TRH, sequence (P34981 whole entry): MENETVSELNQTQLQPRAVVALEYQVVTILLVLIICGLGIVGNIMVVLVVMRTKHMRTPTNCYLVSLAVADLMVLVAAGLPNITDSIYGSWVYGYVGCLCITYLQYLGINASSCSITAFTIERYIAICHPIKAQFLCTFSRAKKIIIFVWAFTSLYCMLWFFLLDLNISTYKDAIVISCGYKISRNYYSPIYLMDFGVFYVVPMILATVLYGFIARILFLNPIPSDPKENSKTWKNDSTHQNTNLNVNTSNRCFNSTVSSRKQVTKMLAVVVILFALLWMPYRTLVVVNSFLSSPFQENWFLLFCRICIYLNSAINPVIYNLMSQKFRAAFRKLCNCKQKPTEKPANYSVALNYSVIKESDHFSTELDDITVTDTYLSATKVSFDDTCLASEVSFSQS
NK2, sequence (P21452 whole entry): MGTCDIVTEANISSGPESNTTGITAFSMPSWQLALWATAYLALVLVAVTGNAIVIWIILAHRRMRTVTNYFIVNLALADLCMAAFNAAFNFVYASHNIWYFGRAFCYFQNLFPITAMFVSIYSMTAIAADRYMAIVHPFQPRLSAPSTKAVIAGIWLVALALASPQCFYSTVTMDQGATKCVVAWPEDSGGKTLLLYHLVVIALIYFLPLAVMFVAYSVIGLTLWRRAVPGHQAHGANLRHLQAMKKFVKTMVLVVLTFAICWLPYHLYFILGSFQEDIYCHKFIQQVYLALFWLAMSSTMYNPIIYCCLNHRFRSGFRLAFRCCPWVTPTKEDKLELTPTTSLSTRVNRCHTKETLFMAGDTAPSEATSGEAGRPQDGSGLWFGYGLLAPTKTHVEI
NK1, sequence (P25103 whole entry): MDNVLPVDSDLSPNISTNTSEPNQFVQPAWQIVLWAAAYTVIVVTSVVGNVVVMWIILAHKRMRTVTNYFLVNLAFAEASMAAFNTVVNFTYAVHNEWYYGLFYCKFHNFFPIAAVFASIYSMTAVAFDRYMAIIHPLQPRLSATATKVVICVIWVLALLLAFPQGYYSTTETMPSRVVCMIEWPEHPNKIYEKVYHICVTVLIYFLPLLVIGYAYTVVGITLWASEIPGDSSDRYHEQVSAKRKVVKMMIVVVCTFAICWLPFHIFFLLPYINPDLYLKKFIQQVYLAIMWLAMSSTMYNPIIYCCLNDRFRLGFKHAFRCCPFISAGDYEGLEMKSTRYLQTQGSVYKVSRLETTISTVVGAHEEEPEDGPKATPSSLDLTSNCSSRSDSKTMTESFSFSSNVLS

Compound | Ki [1] [nM] | Ki [2] [nM] | Ki [3] [nM] | Ki [4] [nM] | Ki [5] [nM] | Ki [6] [nM] | Ki [7] [nM] | Ki [8] [nM] | Ki [9] [nM] | Ki [10] [nM] | Ki [11] [nM] | EC50 [12] [nM] | Ki [13] [nM] | Ki [14] [nM] | Ki [15] [nM] | Ki [16] [nM] | Ki [17] [nM] | Ki [18] [nM] | concentration at 7 days [19] [nM]
COc1cccc(OC)c1NC(=O)c1ccc(Cc2cc3c(cc2C)C(C)(C)CCC3(C)C)o1 [Compound 20] | > 1000 | > 1000 | > 1000 | > 1000 | ~1000 | > 1000 | > 1000 | > 1000 | > 1000 | > 1000 | > 10000 | > 10000 | > 1000 | 3000 to 5000 | > 1000 | 1000 to 5000 | > 1000 | > 1000 | –
COc1cc(OC)c(NC(=O)c2ccc(Cc3cc4c(cc3C)C(C)(C)CCC4(C)C)o2)c(OC)c1 [Compound 134] | – | – | – | – | – | – | – | – | – | – | – | – | – | – | – | – | – | – | 1300
